Assays:
DOPr = system: DOPr; design: method as in PMID 24174495; settings: cited from earlier work
[1] = system: rat model of streptozotocin (STZ)‐induced diabetic neuropathy; assay: Acute anti‐allodynic dose‐response after single i.t. injection (von Frey); format: in vivo; settings: for Analgesia 60 min after injection vs vehicle: i.t. doses that reached maximal effect, one‐way ANOVA vs control, n = 3‐4; for Area under the curves, pEC50 ± SEM (M) / Peak analgesic response, pEC50 ± SEM (M): i.t. in 30 μL; for Area under the curves, pEC50 ± SEM (M) / Area under the curves, Relative EMAX ± SEM: analgesic response integrated over time (AUC); for Area under the curves, pEC50 ± SEM (M) / Peak analgesic response, pEC50 ± SEM (M) / Peak analgesic response, Relative EMAX ± SEM: four‐parameter logistic fit; for Area under the curves, pEC50 ± SEM (M) / Peak analgesic response, pEC50 ± SEM (M) / Area under the curves, Relative EMAX ± SEM / Peak analgesic response, Relative EMAX ± SEM: 3‐4 rats/dose; for Peak analgesic response, pEC50 ± SEM (M) / Peak analgesic response, Relative EMAX ± SEM: mechanical withdrawal threshold 30 min after injection; for Area under the curves, Relative EMAX ± SEM / Peak analgesic response, Relative EMAX ± SEM: normalized to maximal asymptote of agonist with largest effect
Excerpt: Adult male Sprague Dawley (SD) rats, weighing 235‐250 g, were purchased from Charles River laboratories and housed in a controlled environment on a 12‐hour light/dark cycle with free access to food and water. All experimental methods and animal care procedures were approved by the Animal Care Committee of University of Montreal (CDEA protocol 15‐013), in accordance with the guiding principles as enunciated by the Canadian Council on Animal Care.
(§1) Type I diabetes was induced by systemic injection of streptozotocin (STZ, 65 mg/kg, i.p.) according to a standardized methodology, which allows development of persistent diabetic neuropathy after the first week of treatment. ^20 At the end of the first week, blood was extracted from the tail vein and blood glucose levels were measured with a glucometer (Accu‐Chek Aviva; Roche Diagnostics) prior to evaluation of analgesia on the second week.
(§2) Mechanical allodynia is the consequence of maladaptive neuroplasticity following nerve damage. ^24 In a model of diabetic neuropathy as the one used in this study, hyperglycaemia contributes to generate reactive oxygen species which induce microglia activation and inflammatory mediators. ^25 , ^26 These mediators attenuate the activity of Gly/GABA interneurons in superficial layers ^24 , ^27 , ^28 , ^29 and disrupt the inhibitory control that prevents innocuous touch stimuli from producing pain which leads to allodynia. ^30 DOPrs are expressed in these light‐touch mechanoreceptors ^31 and up‐regulated during sensitization, ^32 , ^33 making DOPr agonists elective for relieving this type of pain. Allodynia was evaluated using Von Frey filaments as previously described. ^19 Briefly, rats were accustomed for 15 min on a metal mesh floor under an inverted plastic box (20 × 10 × 10 cm) in a quiet room dedicated to this behavioural test. After habituation, the plantar surface of the right and left hind legs was alternately touched (6‐8 seconds) with von Frey filaments of progressively wider diameter in order to find the threshold of pressure required to produce withdrawal. The mechanical threshold response was obtained by consigning the pressure in grams that would result in withdrawal of the paw in 50% of 10 trials. A normal rat responds to tactile pressures of 12‐15 g whereas neuropathic rats respond to pressures of 4‐6 g. ^24
In a first series of experiments, dose‐response curves to SNC‐80, SB235863, deltorphin II and TIPP were constructed following intrathecal (i.t.) injection of increasing doses until no increment in maximal anti‐allodynic response was observed. […] Each group of rats received only one ligand and a single dose per day. Saturation of the analgesic response on mechanical allodynia required assessing 5‐6 doses per ligand administered over a period of 5‐6 days, using 3‐4 animals/dose. Injections were made at mid‐lumbar level with a needle 23G × 1/2 under light anaesthesia using 4% isoflurane inhalation in a 1:1 mixture of oxygen and air. The animals were allowed to recover for 15 minutes before mechanical thresholds were determined. Threshold measures were repeated every 15 minutes until the analgesic response disappeared. Peak analgesic responses (30 minutes) or responses integrated over time (area under the curve: AUC) were consigned and plotted as a function of treatment dose. Curves were fitted with the four‐parameter logistic equation in GraphPad 7 to yield ED80 and ED50 values that were then used to treat rats for assessment of chronic tolerance. For each drug, the stock solution was prepared as follows: deltorphin II was dissolved in sterile artificial cerebrospinal fluid (CSF); TIPP and SB235863 stocks were dissolved in sterile water and SNC‐80 in DMSO. Each stock solution was diluted in CSF at required concentrations and injected i.t. in a final volume of 30 μL. Control animals were injected with 30 μL of CSF. At the end of behavioural experiments, rats were anaesthetized by isoflurane and killed by decapitation.

[2] = system: rat model of streptozotocin (STZ)‐induced diabetic neuropathy; assay: Heterologous tolerance to a common probe (deltorphin II ED50) before and after 6‐day treatment, with or without 6634449; format: in vivo; settings: for Heterologous tolerance (response to deltorphin II ED50) with 6634449 co‐administration: 6634449 or vehicle i.t. 20 min before each of six agonist injections at ED80, five rats/group; for Tolerance to common probe deltorphin II (ED50) after 6‐day treatment: probe i.t. one day before and one day after six i.t. injections at ED80, 7 rats/group
Experimental: as §1, §2
(§3) To evaluate homologous tolerance, each agonist was injected i.t. once daily for six consecutive days, at ED80 derived from dose‐response curves (deltorphin‐IIED80: 0.30 nmol/30 μL; TIPPED80: 0.40 nmol/30 μL; SB235863ED80: 1.7 nmol/30 μL and SNC‐80ED80: 0.55 nmol/30 μL). Immediately after drug administration, mechanical allodynia was measured every 15 minutes until the analgesic response disappeared. […] Prior to starting any pharmacological treatment, the presence of allodynia was confirmed. Treatments and measures were carried out randomly by two different experimenters to ensure blinding to treatment for the person assessing allodynia. In a series of experiments, an inhibitor of endothelin‐converting enzyme 2 (ECE2), 6634449, was administered by i.t injection (3 nmol/30 μL) 20 minutes prior to administration of DOPr ligands from 2 to 7 days. The vehicle (4% DMSO diluted in CSF sterile) was given as control. The dose of 6634449 used in this study was based on results previously published. ^25
(§4) Figure 1 Experimental design. One week after STZ administration, repeated treatments with DOPr agonists were started. Before starting chronic treatment with ED80 of deltorphin II, TIPP, SB235863 or SNC‐80, animals were tested to establish the baseline allodynia. Immediately after, they were injected with deltorphin II at a dose corresponding to ED50, which was repeated at the end of treatment. Allodynia measures were taken every 15 min after each injection until analgesic effects disappeared. Chronic tolerance was evaluated by comparing analgesic response to successive i.t. injections of each agonist between days 2 and 6. Difference in analgesic response to deltorphin II ED50 in days 1 and 8 allowed to establish tolerance induced by the different agonists to this common probe

[3] = system: rat model of streptozotocin (STZ)‐induced diabetic neuropathy; assay: Chronic (homologous) analgesic tolerance over six daily i.t. injections at ED80, with or without ECE2 inhibitor 6634449; format: in vivo; settings: for Anti‐allodynic response over 6‐day treatment: six consecutive i.t. injections at ED80, 24‐hour intervals, daily AUC, seven rats/group
Experimental: as §1, §2, §3, §4

[4] = peptidic ligands; cited from earlier work
[5] = system: endothelin‐converting enzyme 2 (ECE2); settings: endosomal protease that functions at acidic pH; cited from earlier work
Excerpt: Indeed, deltorphin II is a naturally occurring opioid peptide ^32 and TIPP is an opioid peptide analogue. ^33 On the other hand, SNC‐80 ^34 and SB235863 ^35 are synthetic, non‐peptide ligands.

[6] = i.t., anti‐allodynic effect, STZ rats

Compound	Internalization in HEK cells (DOPr)	Analgesia 60 min after injection vs vehicle [1]	Area under the curves, pEC50 ± SEM (M) ([1]; STZ rats)	Peak analgesic response, pEC50 ± SEM (M) ([1]; STZ rats)	Area under the curves, Relative EMAX ± SEM ([1]; i.t., STZ rats)	Peak analgesic response, Relative EMAX ± SEM ([1]; i.t., STZ rats)	ED80 derived from dose‐response curves [1, 6]	Heterologous tolerance (response to deltorphin II ED50) with 6634449 co‐administration [2]	Tolerance to common probe deltorphin II (ED50) after 6‐day treatment [2]	Anti‐allodynic response over 6‐day treatment [3]	Blood‐brain barrier penetration [4]	ED50 (challenge dose) [1, 6]	Substrate of ECE2 [5]	Analgesic t 1/2 (95% CI), rats pre‐treated with ECE2 inhibitor 6634449 ([3]; 6634449 3 nmol/30 μL (0.1 mmol/L) i.t. 20 min before each daily i.t. agonist injection at ED80, five rats/group)	Tolerance / analgesia with 6634449 pre‐treatment compared with vehicle controls ([3]; 6634449 0.1 mmol/L i.t. 20 min before each agonist injection at ED80, five rats/group)	Day by which analgesic effects were reduced in animals exposed to 6634449 ([3]; 6634449 i.t. 20 min before each daily agonist injection at ED80)	Analgesic t 1/2 (95% CI), rats pre‐treated with vehicle ([3]; vehicle i.t. 20 min before each daily i.t. agonist injection at ED80, five rats/group)
CCC(C)COC(=O)c1[nH]c2c(c1C)CC1C3Cc4ccc(OC)c5c4C1(CCN3C)C2O5.Cl (stereo not drawn) [SB235863, [8R‐(4bS*,8aα,8aβ,12bβ)]7,10‐dimethyl‐1‐methoxy‐11‐(2‐ethylpropyl)oxycarbonyl 5,6,7,8,12,12b‐hexahydro‐(9H)‐4,8‐methanobenzofuro[3,2‐e]pyrrolo[2,3‐g]isoquinoline hydrochloride]	minimal internalization	still present	4.44 ± 0.03 M	4.50 ± 0.05 M	100.6 ± 5.1	84.4 ± 8.8	1.7 nmol/30 μL	remained unchanged	induced cross‐tolerance	practically abolished	–	–	–	–	–	–	–
C=CCN1C[C@H](C)N([C@H](c2ccc(C(=O)N(CC)CC)cc2)c2cccc(OC)c2)C[C@H]1C [SNC‐80, (+)‐4‐[(αR)‐α‐((2S,5R)‐4‐allyl‐2,5‐dimethyl‐1‐piperazinyl)‐3‐methoxybenzyl]‐N,N‐diethylbenzamide]	marked internalization	no longer significantly different from vehicle	4.95 ± 0.18 M	5.15 ± 0.06 M	87.9 ± 22.1	100 ± 7.8	0.55 nmol/30 μL	remained unchanged	induced cross‐tolerance	gradually decreased	–	–	–	–	–	–	–
deltorphin II	marked internalization	no longer significantly different from vehicle	5.09 ± 0.05 M	5.22 ± 0.86 M	80.5 ± 8.0	91.0 ± 9.0	0.30 nmol/30 μL	reduced analgesic effect	without effect	maintained its analgesic response	poor blood‐brain barrier penetration	0.23 nmol/30 μL	one of the ECE2 substrates	ill‐defined	significantly shorter	4 days	no measurable decay t 1/2

— paper PMC7214178, “Ligand‐specific recycling profiles determine distinct potential for chronic analgesic tolerance of delta‐opioid receptor (DOPr) agonists” (Journal of Cellular and Molecular Medicine, 2020)
